Among the data in patent publication US6756373B1, “Pharmaceutically active compounds” (Pfizer Inc., priority 1999, dated 2004) are melting point values, retold here.

Molecules are shown by their SMILES.

`CCCOc1ncc(C(C)=O)cc1-c1nc2c(CC)n(C3CN(C)C3)nc2c(=O)[nH]1` [Example 120, 5-(5-Acetyl-2-propoxy-3-pyridinyl)-3-ethyl-2-(1-methyl-3-azetidinyl)-2,6-dihydro-7H-pyrazolo[4,3-d]pyrimidin-7-one] came in with a melting point of 175.9 to 177 °C.

In turn, `CCCOc1ncc(C(C)=O)cc1-c1nc2c(CC)nn(CCN3CCOCC3)c2c(=O)[nH]1` [Example 113, 5-(5-Acetyl-2-propoxy-3-pyridinyl)-3-ethyl-1-[2-(4-morpholinyl)ethyl]-1,6-dihydro-7H-pyrazolo[4,3-d]pyrimidin-7-one] registered a melting point of 140 to 143 °C.

`CCCOc1ncc(C(C)=O)cc1-c1nc2c(CC)n(C3CN(C(C)C)C3)nc2c(=O)[nH]1` [Example 124, 5-(5-Acetyl-2-propoxy-3-pyridinyl)-3-ethyl-2-(1-isopropyl-3-azetidinyl)-2,6-dihydro-7H-pyrazolo[4,3-d]pyrimidin-7-one] displayed a melting point of 162.8 to 163.6 °C.

In turn, `CCCOc1ncc(C#C[Si](C)(C)C)cc1-c1nc2c(CC)nn(CCN3CCOCC3)c2c(=O)[nH]1` displayed a melting point of 132 to 134 °C.

Turning to `CCCCOc1ncc(-c2ccco2)cc1-c1nc2c(CC)n(CCOC)nc2c(=O)[nH]1` [Example 12, 5-[2-Butoxy-5-(2-furyl)-3-pyridinyl]-3-ethyl-2-(2-methoxyethyl)-2,6-dihydro-7H-pyrazolo[4,3-d]pyrimidin-7-one], the melting point was 154 to 155 °C.

`CCCCOc1ncc(C(C)=O)cc1-c1nc2c(CC)n(CC3CC3)nc2c(=O)[nH]1` [Example 127] displayed a melting point of 184 to 185 °C.

Turning to `CCCOc1ncc(C(C)=O)cc1-c1nc2c(CC)n(C3CNC3)nc2c(=O)[nH]1` [Example 117, 5-(5-Acetyl-2-propoxy-3-pyridinyl)-2-(3-azetidinyl)-3-ethyl-2,6-dihydro-7H-pyrazolo[4,3-d]pyrimidin-7-one], the melting point fell in the range of 128.5 to 130 °C.

`CCCOc1ncc(C(C)=O)cc1-c1nc2c(CC)n(C3CCN(C(C)=O)CC3)nc2c(=O)[nH]1` [Example 122, 2-(1-acetyl-4-piperidinyl)-5-(5-acetyl-2-propoxy-3-pyridinyl)-3-ethyl-2,6-dihydro-7H-pyrazolo[4,3-d]pyrimidin-7-one] returned a melting point of 213 to 214 °C.

Take `C#Cc1cnc(OCCC)c(-c2nc3c(CC)nn(CCN4CCOCC4)c3c(=O)[nH]2)c1` [Example 107, 3-Ethyl-5-(5-ethynyl-2-propoxy-3-pyridinyl)-1-[2-(4-morpholinyl)ethyl]-1,6-dihydro-7H-pyrazolo[4,3-d]pyrimidin-7-one]: the melting point fell in the range of 137 to 139 °C.

Take `C#Cc1cnc(OCCC)c(-c2nc3c(CC)n(C4CCN(C(=O)OC(C)(C)C)CC4)nc3c(=O)[nH]2)c1` [Example 112, tert-Butyl 4-[3-Ethyl-5-(5-ethynyl-2-propoxy-3-pyridinyl)-7-oxo-6,7-dihydro-2H-pyrazolo[4,3-d]pyrimidin-2-yl]-1-piperidinecarboxylate]: the melting point came out at 221 °C.

With `CCCOc1ncc(C(C)=O)cc1-c1nc2c(CC)n(C3CN(C(C)=O)C3)nc2c(=O)[nH]1` [Example 121, 2-(1-Acetyl-3-azetidinyl)-5-(5-acetyl-2-propoxy-3-pyridinyl)-3-ethyl-2,6-dihydro-7H-pyrazolo[4,3-d]pyrimidin-7-one], the melting point was 229.3 to 230.1 °C.

For `CCCCOc1ncc(C(C)=O)cc1-c1nc2c(CC)n(C3CCN(C(C)=O)CC3)nc2c(=O)[nH]1` [Example 131, 5-(5-Acetyl-2-butoxy-3-pyridinyl)-2-(1-acetyl-4-piperidinyl)-3-ethyl-2,6-dihydro-7H-pyrazolo[4,3-d]pyrimidin-7-one], the melting point fell in the range of 156 to 157 °C.

Turning to `CCCc1nn(C)c2c(=O)[nH]c(-c3cc(NC(C)=O)cnc3OC3CCC3)nc12` [Example 89, N-[6-(Cyclobutyloxy)-5-(1-methyl-7-oxo-3-propyl-6,7-dihydro-1H-pyrazolo[4,3-d]pyrimidin-5-yl)-3-pyridinyl]acetamide], the melting point lay within 279 to 281 °C.
